From patent US11723362B2, “Broad-spectrum synergistic antimicrobial compositions” (The United States of America, as represented by the …, priority 2019, dated 2023)

What was measured:
[1] = system: Pseudomonas aeruginosa ATCC 9027; assay: Bactericidal activity in ionic surfactant hand wash / foamy hand soap base formula (HW); assay type: cell-based; details: pH 7.0; for Day 3 Log Reduction / Day 10 Log Reduction: HW, 1 × 10^6 CFU/ml, 37° C.
Protocol: This example illustrates the preparation of testing parameters for antimicrobial activity of components of the inventive composition and related compositions for comparison. […] Mold were grown and minimum inhibitory tests performed as previously reported (see e.g., Buckley, H. L. et al. ACS Sustain. Chem. Eng. 5, 4320-4331, 2017). Microbes were grown on Mueller-Hinton agar (MHA, Sigma-Aldrich, St. Louis, Mo.) for 7 days until heavy sporulation was present. Spores from two agar plates were captured in sterile phosphate-buffered saline (PBS) using a sterile swab. Spores were enumerated by serial dilution in Dey-Engley neutralizing broth (DEB; Sigma-Aldrich) and spread plating on MHA. A typical spore stock was determined to contain ˜2×10^7 spores/mL. Bacteria were grown in MH broth for 24 h at 37° C., enumerated by plating, and diluted to the desired concentration as indicated.
To test the various compounds, a foamy hand soap base formula was made with sodium lauryl sulfate (SLS, 2.4% w/w; Sulfochem SLS-PHP [30% active], The Lubrizol Corporation, Wickliffe, Ohio) and cocoamidopropyl betaine (CAPB, 1.2% w/w; Mackam 35 [30% active], Solvay S.A, Brussels, Belgium) in deionized water and sterilized by filtration (0.22 μm, PVDF; VWR, Radnor, Pa.). All test formulas were adjusted to the desired pH using citric acid and/or NaOH. All tubes were inoculated with 250 μL of spore inoculum (described above) to a total volume of 5 mL, for a final spore concentration of ˜1×10^6 spores/mL in each tube. […] About 100 μL of each inoculated foamy hand soap mixture was diluted 1:10 in DEB and 100 μL of this dilution was spread plated on MHA at several time points (e.g. 3 d, 7 d, 13 d, 18 d, and 20 d). Plates were incubated at room temperature for 3-5 days for mold (1-2 days for bacteria) and colonies enumerated.

A. brasiliensis = assay: Minimum inhibitory concentration (MIC) in Mueller-Hinton broth, pH 7.4; assay type: cell-based, Aspergillus brasiliensis; parameters: Minimum inhibitory concentration: unit not given here; details: for Minimum inhibitory concentration: Table 2
Protocol: (§1) This example illustrates the preparation of testing parameters for antimicrobial activity of components of the inventive composition and related compositions for comparison. […] Microbes were grown on Mueller-Hinton agar (MHA, Sigma-Aldrich, St. Louis, Mo.) for 7 days until heavy sporulation was present. Spores from two agar plates were captured in sterile phosphate-buffered saline (PBS) using a sterile swab. Spores were enumerated by serial dilution in Dey-Engley neutralizing broth (DEB; Sigma-Aldrich) and spread plating on MHA. A typical spore stock was determined to contain ˜2×10^7 spores/mL. Bacteria were grown in MH broth for 24 h at 37° C., enumerated by plating, and diluted to the desired concentration as indicated.
(§2) To assess the antimicrobial activity of hydroxamic acids and derivatives, the inhibitory properties of commercially available hydroxylamines and hydroxamic acids were compared to their alcohol and carboxylic acid analogues diluted in Mueller-Hinton broth at pH 7.4 (Table 1).

[2] = system: Aspergillus brasiliensis ATCC 16404; assay: Fungicidal activity in ionic surfactant hand wash / foamy hand soap base formula (HW); assay type: cell-based; details: pH 7.0; for Log reduction Week 1 / Log reduction Week 2: 1 × 10^6 CFU/mL, 25° C.; for CFU/mL, incubation time 3 d / CFU/mL, incubation time 7 d / CFU/mL, incubation time 13 d / CFU/mL, incubation time 18 d / CFU/mL, incubation time 20 d: 0.4% hydroxamic acid alone, minimum detection limit 5.0 × 10^1; for Log Reduction Day 5 / Log Reduction Day 12: substance alone 0.5%, high loading 10^7 CFU/mL
Protocol: as §1
All test formulas were adjusted to the desired pH using citric acid and/or NaOH. […] All tubes were kept at room temperature (˜21-22° C.) for 3 weeks. About 100 μL of each inoculated foamy hand soap mixture was diluted 1:10 in DEB and 100 μL of this dilution was spread plated on MHA at several time points (e.g. 3 d, 7 d, 13 d, 18 d, and 20 d). Plates were incubated at room temperature for 3-5 days for mold (1-2 days for bacteria) and colonies enumerated.
The preservative activity of a hydroxamic acid/guanylhydrazone combination was compared to other antimicrobial mixtures in an ionic surfactant-containing formula. […] The fungicidal properties of a mixture of benzhydroxamic acid and guanylhydrazone (1+7) was compared to commercial antimicrobials representing different functional classes (Table 3).

P. aeruginosa = assay: Minimum inhibitory concentration (MIC) in Mueller-Hinton broth, pH 7.4; assay type: cell-based, Pseudomonas aeruginosa; parameters: Minimum inhibitory concentration: unit not given here; details: for Minimum inhibitory concentration: Table 2, ATCC 9027
Protocol: as §1, §2
Guanylhydrazones 7 and 8, which represent a class of broad-spectrum antimicrobials, alone and in combination with hydroxamic acids were evaluated.

E. coli = assay: as above; assay type: cell-based, Escherichia coli
Protocol: as §1, §2

C. albicans = assay: as above; assay type: cell-based, Candida albicans
Protocol: as §1, §2

S. aureus = assay: as above; assay type: cell-based, Staphylococcus aureus
Protocol: as §1, §2

[3] = hand soap formula, 0.4% 1 alone

MIC (A. brasiliensis) [wt %]	MIC (E. coli) [wt %]	MIC (C. albicans) [wt %]	MIC (P. aeruginosa) [wt %]	MIC (S. aureus) [wt %]	Compound	further results
–	–	–	–	–	CCc1ccc(C(=O)NO)cc1 [4-ethylbenzhydroxamic acid 3, 4-ethylbenzhydroxamic acid]	Day 3 Log Reduction ([1]; substance alone 0.2%): 1 Log; Day 10 Log Reduction ([1]; substance alone 0.2%): 0 Log; Minimum inhibitory concentration (A. brasiliensis): 0.06; Log reduction Week 1 ([2]; HW, 0.2 wt %): 4 Log; Log reduction Week 2 ([2]; HW, 0.2 wt %): 1 Log; Log reduction Week 1 ([2]; HW, 0.5 wt %): 4 Log; Log reduction Week 2 ([2]; HW, 0.5 wt %): 4 Log; Minimum inhibitory concentration (P. aeruginosa): 0.5
–	–	–	–	–	CC(C)c1ccc(C(=O)NO)cc1 [4-isopropylbenzhydroxamic acid 5, 4-isopropylbenzhydroxamic acid]	Minimum inhibitory concentration (A. brasiliensis): 0.04; CFU/mL, incubation time 3 d ([2]; hand soap formula): >2.5 × 10^4 CFU/mL; CFU/mL, incubation time 7 d ([2]; hand soap formula): 1.0 × 10^4 CFU/mL; CFU/mL, incubation time 13 d ([2]; hand soap formula): 1.0 × 10^2 CFU/mL; CFU/mL, incubation time 18 d ([2]; hand soap formula): <5.0 × 10^1 CFU/mL; CFU/mL, incubation time 20 d ([2]; hand soap formula): <5.0 × 10^1 CFU/mL
–	–	–	–	–	Cc1ccc(C(=O)NO)cc1 [4-methylbenzhydroxamic acid 2, 4-methylbenzhydroxamic acid]	Day 3 Log Reduction ([1]; substance alone 0.2%): 2 Log; Day 10 Log Reduction ([1]; substance alone 0.2%): 4 Log; Minimum inhibitory concentration (A. brasiliensis): 0.02; Log reduction Week 1 ([2]; HW, 0.2 wt %): 4 Log; Log reduction Week 2 ([2]; HW, 0.2 wt %): 4 Log; Minimum inhibitory concentration (P. aeruginosa): 0.3
–	–	–	–	–	CCCCc1ccc(C(=O)NO)cc1 [4-n-butylbenzhydroxamic acid 6, 4-n-butylbenzhydroxamic acid]	Day 3 Log Reduction ([1]; substance alone 0.4%): 0 Log; Day 10 Log Reduction ([1]; substance alone 0.4%): 0 Log; Minimum inhibitory concentration (A. brasiliensis): 0.008; Log reduction Week 1 ([2]; HW, 0.4 wt %): 4 Log; Log reduction Week 2 ([2]; HW, 0.4 wt %): none; Minimum inhibitory concentration (P. aeruginosa): 0.1
–	–	–	–	–	CCCc1ccc(C(=O)NO)cc1 [4-n-propylbenzhydroxamic acid 4, 4-n-propylbenzhydroxamic acid]	Minimum inhibitory concentration (A. brasiliensis): 0.02; CFU/mL, incubation time 3 d ([2]; hand soap formula): >2.5 × 10^4 CFU/mL; CFU/mL, incubation time 7 d ([2]; hand soap formula): >2.2 × 10^4 CFU/mL; CFU/mL, incubation time 13 d ([2]; hand soap formula): 5.0 × 10^2 CFU/mL; CFU/mL, incubation time 18 d ([2]; hand soap formula): 1.5 × 10^2 CFU/mL; CFU/mL, incubation time 20 d ([2]; hand soap formula): <5.0 × 10^1 CFU/mL
0.2	0.1	0.2	0.06	0.06	CC(=O)O [Acetic acid]	–
0.5	0.5	0.2	0.5	0.5	CC(=O)NO [Acetohydroxamic acid]	–
0.02	0.5	0.03	0.1	0.06	O=C(NO)c1ccccc1 [Benzhydroxamic acid 1, Benzhydroxamic acid]	CFU/mL after 7 d contact time [1, 3]: 2 × 10^4 CFU/mL; Minimum inhibitory concentration (A. brasiliensis): 0.02; Log reduction Week 1 ([2]; HW, 0.5 wt %): 1 Log; Log reduction Week 2 (day 12) ([2]; HW, 0.5 wt %, day 12): 4 Log; Log Reduction Day 5 ([2]; HW): 1 Log; Log Reduction Day 12 ([2]; HW): 4 Log; CFU/mL after 7 d contact time [2, 3]: 1 × 10^3 CFU/mL; Minimum inhibitory concentration (P. aeruginosa): 0.1
0.5	0.5	0.5	0.2	0.5	OCc1ccccc1 [Benzyl alcohol]	–
0.5	0.5	0.5	0.5	0.5	CCCCCCCC(=O)O [Caprylic acid]	–
–	–	–	–	–	CCCCCCC(O)CO (centres unmarked) [Caprylyl Glycol]	Log Reduction Day 5 ([2]; HW): 0 Log; Log Reduction Day 12 ([2]; HW): 1 Log
0.47	–	10	10	10	CCO [Ethanol]	–
0.2	0.5	0.5	0.2	0.5	Cl.ONCc1ccccc1 [N-benzylhydroxylamine HCl]	–
>0.5	>0.5	–	0.5	0.5	O=C1CCC(=O)N1O [N-hydroxysuccinimide]	–
0.2	0.2	0.5	0.2	0.2	Cl.NOCc1ccccc1 [O-benzylhydroxylamine HCl]	–
0.06	0.3	0.1	0.2	>0.5	Cl.NOc1ccccc1 [O-phenylhydroxylamine HCl]	–
–	–	–	–	–	CCCOC(=O)c1cc(O)c(O)c(O)c1 [Propyl gallate]	Log Reduction Day 5 ([2]; HW): 1 Log; Log Reduction Day 12 ([2]; HW): 1 Log
0.5	0.2	0.5	0.2	0.1	O=C(O)c1ccccc1O [Salicylic acid]	–
0.5	>0.5	0.5	0.5	0.5	O=C(CCCCCCC(=O)NO)NO [Suberohydroxamic acid]	–
–	–	–	–	–	Sorbitan caprylate	Log Reduction Day 12 ([2]; HW): 0 Log

Compound	MIC (A. brasiliensis) [wt %]	MIC (E. coli) [wt %]	MIC (C. albicans) [wt %]	MIC (P. aeruginosa) [wt %]	MIC (S. aureus) [wt %]	further results
O=C(O)c1ccccc1 [Benzoic acid]	0.2	0.2	0.2	0.2	0.2	–
CO [Methanol]	0.5	–	20	20	20	–
CCON.Cl [O-ethylhydroxylamine HCl]	0.1	0.1	0.2	0.1	0.1	–
CON.Cl [O-methylhydroxylamine HCl]	0.1	0.2	0.5	0.1	0.06	–
CC(C)(C)ON.Cl [O-tert-butylhydroxylamine HCl]	0.5	0.5	0.5	0.2	0.1	–
Oc1ccccc1 [Phenol]	0.1	>0.5	0.2	0.2	0.2	–
CC(C)(C)O [t-Butanol]	>0.5	>0.5	0.5	20	5	–
